The record followed here is ChEMBL document CHEMBL1201862, “PubChem BioAssay data set” (2004).

Structures are written as SMILES.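 Dose response: 5 concentrations. Exposure: 48 h. Format: 96-well plates. Endpoint: linear interpolation; highest concentration if not reached. The concentration for 50% growth inhibition is given as GI50.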 Active and inactive are the calls of the source. No stated cut-off is given here; in the data, active = GI50 up to about 1.1 µM and inactive = higher.

Among the test systems are OVCAR-3; Malme-3M; EKVX; SW-620; CAKI-1; HCT-116; SNB-19; SK-MEL-28; MDA-MB-231; SK-MEL-5; SF-295; MOLT-4; A549; HCT-15; COLO 205; MCF7; Hs-578T; SF-268; SNB-75.
Common to all, as to test: NCI-60 cell line screen, 48 h

Regarding `Cc1ccc(S(=O)(=O)N/N=C2\CC3C4C=CC3C2C4)cc1` (stereo not drawn), the GI50 in the experiment with OVCAR-3, in the experiment with Malme-3M, in the experiment on EKVX, in the experiment on SW-620, in the experiment on CAKI-1 and in the experiment on HCT-116 was > 100 µM (inactive) in each case. Also, the GI50 with SNB-19, in the experiment on SK-MEL-28, with MDA-MB-231, with SK-MEL-5, with SF-295 and in the experiment with MOLT-4 was > 100 µM (inactive) in each case. Moreover, the GI50 with A549 was > 100 µM (inactive); in the experiment on HCT-15, above 100 µM; in the experiment on COLO 205 it was > 100 µM (inactive); with MCF7, > 100 µM (inactive); with Hs-578T, > 100 µM (inactive); in the experiment with SF-268 it was > 100 µM (inactive).

Regarding `COc1ccccc1CC(=O)C(O)(C(F)(F)F)C(F)(F)F`, the GI50 with OVCAR-3, in the experiment with Malme-3M, in the experiment with EKVX, in the experiment on SW-620, in the experiment with CAKI-1 and in the experiment with HCT-116 was > 100 µM (inactive) throughout. The GI50 in the experiment with SNB-19, with SK-MEL-28, with MDA-MB-231, in the experiment with SK-MEL-5, in the experiment with SF-295 and in the experiment on MOLT-4 was > 100 µM (inactive) throughout. In addition, the GI50 with A549 is > 100 µM (inactive); in the experiment on HCT-15 it was above 100 µM; in the experiment with COLO 205 it was > 100 µM (inactive); in the experiment with SNB-75, 12.7 µM (inactive); in the experiment with MCF7, > 100 µM (inactive); in the experiment with Hs-578T, > 100 µM (inactive). Further, the GI50 in the experiment on SF-268 was > 100 µM (inactive).

`Cn1c(=O)c(Br)c(C=O)n(CCO[N+](=O)[O-])c1=O`: the GI50 in the experiment on EKVX was 2.78 µM (inactive); with SW-620, 2.26 µM (inactive); in the experiment with HCT-116, 3.78 µM (inactive); with SNB-19 it was 26.2 µM (inactive); in the experiment on SK-MEL-28 it was 2.07 µM (inactive); with MDA-MB-231, 2.53 µM (inactive). Also, the GI50 with SK-MEL-5 is 11.2 µM (inactive); in the experiment on MOLT-4, 1.87 µM (inactive); in the experiment with A549, 16.1 µM (inactive); in the experiment on HCT-15, 4.83 µM; with COLO 205, 5.92 µM (inactive); in the experiment with SNB-75, 12.2 µM (inactive). For the same molecule, the GI50 in the experiment on MCF7 is 1.97 µM (inactive); in the experiment with Hs-578T, 31 µM (inactive); in the experiment on SF-268, 4.28 µM (inactive).

As to `Cc1noc(C)c1/N=N/c1ccc2nonc2c1N`, the GI50 in the experiment with OVCAR-3 was > 100 µM (inactive); with Malme-3M, > 100 µM (inactive); in the experiment with EKVX it was 2.66 µM (inactive); in the experiment on SW-620, > 100 µM (inactive); in the experiment on CAKI-1, > 100 µM (inactive); with HCT-116 it was > 100 µM (inactive). The GI50 in the experiment with SNB-19 was 26.1 µM (inactive); with SK-MEL-28 it was > 100 µM (inactive); in the experiment with MDA-MB-231, > 100 µM (inactive); with SK-MEL-5 it was > 100 µM (inactive); in the experiment with SF-295, 67.3 µM (inactive); in the experiment with MOLT-4 it was > 100 µM (inactive). Also, the GI50 with A549 is > 100 µM (inactive); in the experiment on HCT-15, above 100 µM; in the experiment with COLO 205, > 100 µM (inactive); in the experiment with SNB-75, 15.1 µM (inactive); with MCF7, > 100 µM (inactive); in the experiment on SF-268, > 100 µM (inactive).

As to `CCOc1ccc(NC(=O)CCc2nnc(SC)o2)cc1`, the GI50 with OVCAR-3, in the experiment on Malme-3M, with EKVX, with SW-620, in the experiment on CAKI-1 and in the experiment on HCT-116 was > 100 µM (inactive) throughout. Further, the GI50 in the experiment with SNB-19, in the experiment on SK-MEL-28, in the experiment on SK-MEL-5, with SF-295, in the experiment on MOLT-4 and in the experiment with A549 was > 100 µM (inactive) in each case. The GI50 was above 100 µM in the experiment on HCT-15, > 100 µM (inactive) in the experiment on COLO 205, > 100 µM (inactive) with SNB-75 and > 100 µM (inactive) with SF-268.

For `N#Cc1sc2c(c1OC(=O)c1ccc(Cl)cc1Cl)c(=O)n(-c1ccccc1)c(=S)n2-c1ccccc1`, the GI50 is 19.2 µM (inactive) with OVCAR-3; 31.8 µM (inactive) with EKVX; 24.5 µM (inactive) with SW-620; 23.7 µM (inactive) in the experiment with CAKI-1; 13.4 µM (inactive) with HCT-116; 19.8 µM (inactive) in the experiment on SNB-19. Besides, the GI50 in the experiment on SK-MEL-28 is > 100 µM (inactive); in the experiment with MDA-MB-231, 22.8 µM (inactive); with SK-MEL-5, 16.6 µM (inactive); in the experiment on SF-295, 28.2 µM (inactive); in the experiment with MOLT-4, 18.7 µM (inactive); in the experiment on A549, 30.5 µM (inactive). The GI50 in the experiment on HCT-15 was 21.5 µM; in the experiment with COLO 205, 19.7 µM (inactive); in the experiment with SNB-75, 20.8 µM (inactive); in the experiment on MCF7, 23 µM (inactive); with Hs-578T it was 36.7 µM (inactive); in the experiment on SF-268 it was 29.4 µM (inactive).

Consider `C/C=C/C(=O)N1C(=O)OC[C@@H]1c1ccccc1`, for which the GI50 with OVCAR-3 is 18 µM (inactive); in the experiment with Malme-3M, 20.4 µM (inactive); in the experiment on EKVX, 17.6 µM (inactive); in the experiment with SW-620 it was 24.6 µM (inactive); with CAKI-1 it was 18.3 µM (inactive); in the experiment on HCT-116, 19.9 µM (inactive). The GI50 was 20.4 µM (inactive) in the experiment with SNB-19; 21.5 µM (inactive) with SK-MEL-28; 22 µM (inactive) in the experiment on MDA-MB-231; 18.7 µM (inactive) in the experiment on SK-MEL-5; 26.7 µM (inactive) with SF-295; 25.2 µM (inactive) in the experiment on MOLT-4. Further, the GI50 is 19.1 µM (inactive) in the experiment on A549; 23.3 µM with HCT-15; 21.8 µM (inactive) in the experiment with COLO 205; 12.8 µM (inactive) in the experiment with SNB-75; 14.7 µM (inactive) in the experiment with MCF7; 24.8 µM (inactive) in the experiment with Hs-578T. The GI50 in the experiment with SF-268 is 20.5 µM (inactive).

For the molecule `CC(C)N(/C(F)=N\C(=O)Nc1ccccc1C(F)(F)F)C(C)C`, the GI50 is 32 µM (inactive) with OVCAR-3; 31.6 µM (inactive) with Malme-3M; 31.8 µM (inactive) with EKVX; 44.7 µM (inactive) with SW-620; 37.4 µM (inactive) in the experiment on CAKI-1; 36.6 µM (inactive) with HCT-116. The GI50 in the experiment on SNB-19 is 49.9 µM (inactive); in the experiment with SK-MEL-28, 81.5 µM (inactive); with MDA-MB-231, 47.3 µM (inactive); in the experiment on SK-MEL-5 it was 38.4 µM (inactive); in the experiment on SF-295, 45.6 µM (inactive); in the experiment on MOLT-4, > 10 µM (inactive). Further, the GI50 is 52.1 µM (inactive) with A549; 34.3 µM in the experiment with HCT-15; 44.7 µM (inactive) with COLO 205; > 100 µM (inactive) in the experiment with SNB-75; 35.6 µM (inactive) in the experiment on MCF7; 60.3 µM (inactive) in the experiment with Hs-578T. Further, in the experiment with SF-268, the GI50 was 89.3 µM (inactive).

Take `O=C(CC(C(=O)c1ccsc1)c1cccs1)c1ccccc1` (stereo not drawn): the GI50 in the experiment on OVCAR-3 was > 100 µM (inactive); in the experiment with EKVX it was > 100 µM (inactive); in the experiment with SW-620 it was > 100 µM (inactive); in the experiment with CAKI-1 it was > 100 µM (inactive); in the experiment on HCT-116, 71.4 µM (inactive); in the experiment with SK-MEL-28 it was > 100 µM (inactive). Moreover, the GI50 in the experiment with MDA-MB-231 is 56.8 µM (inactive); with SK-MEL-5 it was 70.5 µM (inactive); in the experiment on SF-295 it was 98.9 µM (inactive); in the experiment with MOLT-4, 36.2 µM (inactive); in the experiment on A549, 15.6 µM (inactive); with HCT-15, 56.4 µM. For the same molecule, the GI50 in the experiment on COLO 205 was > 100 µM (inactive); in the experiment on SNB-75 it was 23.7 µM (inactive); in the experiment with MCF7, 45.1 µM (inactive); in the experiment on Hs-578T, > 100 µM (inactive); in the experiment with SF-268, > 100 µM (inactive).

On to `CCn1nc(-c2ccccc2)c2c1N(C)c1ccccc1-n1c(-c3ccccc3)nnc1-2`, for which the GI50 is 16.1 µM (inactive) in the experiment with SW-620; 13.1 µM (inactive) with HCT-116; 15.9 µM (inactive) with SNB-19; 17.7 µM (inactive) in the experiment on SK-MEL-28; 13.4 µM (inactive) with MDA-MB-231; 9.25 µM (inactive) in the experiment on SK-MEL-5. Also, the GI50 in the experiment on MOLT-4 is > 10 µM (inactive); in the experiment on A549, 13.3 µM (inactive); in the experiment on HCT-15 it was 10.4 µM; with COLO 205, 19.7 µM (inactive); in the experiment on SNB-75, 3.69 µM (inactive); with MCF7, 5.45 µM (inactive). For the same molecule, the GI50 with Hs-578T is 19 µM (inactive); in the experiment with SF-268 it was 16.1 µM (inactive).

Turning to `COC(=O)CCC(=O)c1ccc2c(c1)CC1(C2)Cc2ccc(C(=O)CCC(=O)OC)cc2C1`, the GI50 with OVCAR-3 is 61.2 µM (inactive); in the experiment with Malme-3M it was > 100 µM (inactive); in the experiment on EKVX it was > 100 µM (inactive); in the experiment on HCT-116, > 100 µM (inactive); in the experiment with MDA-MB-231, 60.1 µM (inactive); with SK-MEL-5 it was 17.3 µM (inactive). In addition, the GI50 in the experiment on SF-295 was 53.8 µM (inactive); with MOLT-4 it was 52 µM (inactive); in the experiment on A549, > 100 µM (inactive); in the experiment with HCT-15, above 100 µM; in the experiment with COLO 205, 94.4 µM (inactive); in the experiment on SNB-75 it was < 0.01 µM (active). The GI50 in the experiment with MCF7 is 44.1 µM (inactive); with Hs-578T it was > 100 µM (inactive).

Take `S=c1sc2c(S)nc(S)nc2n1-c1ccccc1`: the GI50 with OVCAR-3, in the experiment with Malme-3M, in the experiment on EKVX, with SW-620, in the experiment with CAKI-1 and in the experiment with HCT-116 was > 100 µM (inactive) each time. Besides, the GI50 in the experiment on SNB-19, with SK-MEL-28, in the experiment on SK-MEL-5, in the experiment on SF-295, with MOLT-4 and with A549 was > 100 µM (inactive) throughout. Besides, the GI50 is above 100 µM in the experiment on HCT-15, > 100 µM (inactive) in the experiment with COLO 205, 69.8 µM (inactive) in the experiment on SNB-75 and > 100 µM (inactive) in the experiment on SF-268.
